Duration of ketosis and cleavage by pancreatin data for four compounds are collected here from patent publication US12577190B2, “Method for producing polyol-based esters of ketocarboxylic acids” (KetoLipix Therapeutics GmbH, priority 2019, dated 2026).

The conditions of data set [1]: even if several grams are taken; cited from earlier work.
Data set [2] has as its system pancreatin (Panzytrat 40,000). How it is done: Both media are from the company Biorelevant®, Ltd. in Great Britain. In addition, in some experiments porcine pancreas is added (Panzytrat® 40,000, Fa. Allergan).
The pancreatin is used in the form of the commercially available product Panzytrat® 40,000 from the Allergan company. The whole mixture is stirred on a hot plate at 50° C.; the course of the reaction is determined and monitored by continuously recording the acid number over time.

For the compound `CC(O)CC(=O)O` (stereo not shown) [3-hydroxybutyric acid], the duration of ketosis entry in data set [1] was “three to four”. Take 3-oxobutyric acid tri-diglycerol ester: the cleavage by pancreatin result in data set [2] is on record as “cleaved”. For 3-oxobutyric acid di-diglycerol ester, in data set [2], the cleavage by pancreatin result is given as “cleaved”. Same read-out and setting: under 3-oxobutyric acid mono-diglycerol ester stands “cleaved”.
